Data on 12 molecules can be found in patent US9969709B2, “Guanidinobenzoic acid ester compound” (Takeda Pharmaceutical Company Limited, priority 2013, dated 2018).

Structures are written as SMILES. Counter-ions that a name gives are not always drawn.

As usually defined, the IC50 is the point on the concentration scale where inhibition reaches its midpoint.

The target in test [1] is T1, human recombinant trypsin (rh-trypsin) (Homo sapiens, UniProt P07477).
T1 construct: purchased Wako Pure Chemical Industries, Ltd. 206-17171
The test can be described thus: Trypsin inhibitory activity, human recombinant trypsin, BZiPAR fluorescent substrate. The format is biochemical. As to conditions: 30 min at room temperature, read-out: r-h Trypsin inhibitory activity (IC50). How it is done:
(§1) 1. Confirmation of Trypsin Inhibitory Activity in Humans and Mice In the experiment, human recombinant trypsin (rh-trypsin; manufactured by Wako Pure Chemical Industries, Ltd.), cat. #206-17171) and mouse trypsin (m-trypsin; purified from the mouse small intestine contents by the present inventors) were used. The method for purifying m-trypsin from the contents of the mouse small intestine is shown below. The compound was dissolved in dimethyl sulfoxide (DMSO), and diluted to an arbitrary concentration (A). A was 100-fold diluted with a buffer (0.1 M Tris (pH 8.0), 0.15 M NaCl, 10 mM CaCl2, 0.05% Brij35) (B). The rh-trypsin was diluted with a buffer to 0.088 μg/mL, and for the m-trypsin, the purified fraction liquid was 50-fold diluted with the buffer (C). […] A BZiPAR solution (Rhodamine Reference Substrate) which is substrate for the trypsin enzyme was diluted with the buffer to […] (D). 5 μL of B, 5 μL of C, and 10 μL of D were added to a 384-well plate, and incubated at room temperature for 30 minutes. Fluorescent signals were detected at a maximum excitement (Ex)/fluorescent wavelength (Em)=497 nm/520 nm using a Tecan Safire Fluorometer. […] Based on the obtained inhibitory rates, the trypsin inhibitory activities (IC50 values, nM) were calculated from the non-linear regression.

Test [2] relates to T2, mouse trypsin (m-trypsin).
T2 construct: mouse trypsin (m-trypsin)
The test can be described thus: Trypsin inhibitory activity, mouse trypsin purified from small intestine contents, BZiPAR fluorescent substrate. The format is biochemical. The following applies: 30 min at room temperature.
From the text: 1. Confirmation of Trypsin Inhibitory Activity in Humans and Mice
In the experiment, human recombinant trypsin (rh-trypsin; manufactured by Wako Pure Chemical Industries, Ltd.), cat. #206-17171) and mouse trypsin (m-trypsin; purified from the mouse small intestine contents by the present inventors) were used. The method for purifying m-trypsin from the contents of the mouse small intestine is shown below.
The small intestine contents and the gastrointestinal tract obtained from 10 mice were homogenized in phosphate buffer saline (PBS) using Polytron, and subjected to centrifugation several times at 15,000×g for 10 minutes. The supernatant was mixed at 4° C. for 16 hours with a Benzamidine Sepharose 4 Fast Flow Resin (GE Healthcare: #17-5123-10). After washing the resin with PBS, m-trypsin was eluted with a glycine buffer (pH 3.0) to carry out purification. It was confirmed by Western blot analysis that the obtained purified fraction was recognized as an Anti-mouse Trypsin Antibody (Santa Cruz Biotechnology, Inc.: sc-67388). The method for measuring the trypsin inhibiting activity is shown below.
as §1, with “The” for “1. Confirmation of Trypsin Inhibitory Activity in Humans and Mice In the experiment, human recombinant trypsin (rh-trypsin; manufactured by Wako Pure Chemical Industries, Ltd.), cat. #206-17171) and mouse trypsin (m-trypsin; purified from the mouse small intestine contents by the present inventors) were used. The method for purifying m-trypsin from the contents of the mouse small intestine is shown below. The”

The next test has as its system ICR mice. As to the kind of experiment: Test of increase in fecal protein concentration using mice. The format is in vivo, mouse. As to conditions: Mus musculus, po, 9 h, 5 mg/kg oral, male ICR mice, feces collected 3 to 9 hours after feeding started, control group = 1; read-out: Fecal protein, Folds (vs. control). How it is done: 2. Test of Increase in Fecal Protein Concentration Using Mice
For the experiment, 6-week old male ICR mice were used. The experiment was carried out in five mice per group. After fasting the mice for 15 hours, the control group was forcibly orally administered with a 0.5% methyl cellulose (MC) solution, and the test drug group was forcibly orally administered (5 mg/kg) with a solution or suspension obtained by dissolving or suspending the compound in the 0.5% MC solution. The fasting was stopped immediately thereafter, free feeding (CE-2) was started, and then the feces were collected from after 3 hours to after 9 hours, and weighed. All of the obtained feces were suspended in 6 mL of distilled water, and centrifuged at 1,940×g for 10 minutes. The protein concentration in the obtained supernatant was measured by a Bradford method, and the amount of the protein in 1 g of feces was calculated by dividing the protein concentration in the feces by the total weight of feces. Further, the efficacy was investigated from the ratio to the control group. For the compounds that were evaluated multiple times, the average values were calculated.
The results of the activities with an increase in Fecal Protein, assuming a value for the control group as 1, are shown in Table 2.

Another test deals with Wistar rats. As to the kind of experiment: Rat uninephrectomy doxorubicin (DXR)-induced nephropathy model (renal function reduced model). The format is in vivo. The following applies: 10 mg/kg oral twice daily, week 3, vs control group. How it is done:
3. Test of Rat Uninephrectomy Doxorubicin (DXR)-Induced Nephropathy Model (Renal Function Reduced Model) Uninephrectomy was performed in the left kidney of 10-week old male Wistar rats, and one week later, DXR (5 mg/kg) was administered to the rats via the caudal vein to induce a nephropathy model. The experiment was carried out in ten rats per group. During the period of administering the compound, the rats were fed with diet only in daytime, while fasted in nighttime. A test compound (10 mg/kg) was suspended in a 0.5% methylcellulose (MC) solution from the day after the preparation of the model, and was forcibly orally administered twice (morning and night) daily. To each of a sham (normal) group and a control group, 0.5% MC was forcibly orally administered. At 1, 2, and 3 weeks after the start of administration of the test compound, 24-hour urine collection was each performed to measure the amount of the protein excretion in urine. Blood collection was performed after the end of the urine collection at week 3, and the concentration of creatinine in plasma was measured.

`Cl.N=C(N)Nc1ccc(C(=O)Oc2ccc3c(c2)CCCC3CC(=O)N(CC(=O)O)Cc2cccc(C(=O)O)c2)cc1` (centres unmarked) [Example 2, 3-{[({6-[(4-carbamimidamnidobenzoyl)oxy]-1,2,3,4-tetrahydronaphthalen-1-yl}acetyl)(carboxymethyl)amino]methyl}benzoic acid monohydrochloride]: the IC50 in test [1] came out at 0.4 nM. Moreover, in test [2], the IC50 came out at 0.51 nM. Besides, the response vs control in vivo at 5 mg/kg in the test with ICR mice was determined as 255%. In the test on Wistar rats, the “inhibitory rate of the amount of protein excretion in urine” value was “about 42%” and the “inhibitory rate of the creatinine concentration in plasma” value was “about 42%”.
For `N=C(N)Nc1ccc(C(=O)Oc2ccc3c(c2)CCC3CC(=O)N(CC(=O)O)Cc2cccc(C(=O)O)c2)cc1` (centres unmarked) [Example 11], the half-maximal inhibitory concentration (IC50) in test [1] was determined as 0.31 nM; in test [2], 0.68 nM. The response vs control in vivo at 5 mg/kg in the test with ICR mice is 263%.
In the same order, the values of `N=C(N)Nc1ccc(C(=O)Oc2ccc3cc(C(=O)N(CC(=O)O)Cc4csc(C(=O)O)c4)ccc3c2)cc1` [Example 1, 4-{[{6-[(4-carbamimidamidobenzoyl)oxy]-2-naphthoyl}(carboxymethyl)amino]methyl}thiophene-2-carboxylic acid monohydrochloride] are 0.31 nM, 0.41 nM and 200%.
In the same order, the values of `C[C@H](C(=O)O)N(Cc1csc(C(=O)O)c1)C(=O)CC1CCc2cc(OC(=O)c3ccc(NC(=N)N)cc3)ccc21` (some centres unmarked) [Example 48] are 0.36 nM, 0.44 nM and 179%.
In the case of `N=C(N)Nc1ccc(C(=O)Oc2ccc3c(c2)CCC3CC(=O)N(CC(=O)O)Cc2ccc(CC(=O)O)cc2)cc1` (centres unmarked) [Example 52], the 50% inhibitory concentration (IC50) in test [1] turned out to be 0.43 nM; in test [2], 0.55 nM. Also, the response vs control in vivo at 5 mg/kg with ICR mice is 178%.
On to `N=C(N)Nc1ccc(C(=O)Oc2ccc3cc(C(=O)N(CC(=O)O)Cc4ccc5sc(C(=O)O)cc5c4)ccc3c2)cc1` [Example 33], for which the IC50 was 0.18 nM in test [1] and 0.16 nM in test [2]. Moreover, the response vs control in vivo at 5 mg/kg in the test on ICR mice came to 139%.
In the same order, the values of `N=C(N)Nc1ccc(C(=O)Oc2ccc3c(C(=O)N(CC(=O)O)Cc4ccc5sc(C(=O)O)cc5c4)csc3c2)cc1` [Example 32] are 0.15 nM, 0.14 nM and 190%.
For `N=C(N)Nc1ccc(C(=O)Oc2ccc3c(c2)CCCC3CC(=O)N(CC(=O)O)Cc2ccc3sc(C(=O)O)cc3c2)cc1` (centres unmarked) [Example 25] the same measures were 0.28 nM, 0.35 nM and 135%.
For `N=C(N)Nc1ccc(C(=O)Oc2ccc3c(c2)CCCC3CC(=O)N(CC(=O)O)Cc2csc(C(=O)O)c2)cc1` (centres unmarked) [Example 27] the same measures were 0.32 nM, 0.35 nM and 198%.
As to `N=C(N)Nc1ccc(C(=O)Oc2ccc3c(c2)CCC(C(=O)N(CC(=O)O)Cc2ccc4sc(C(=O)O)cc4c2)C3)cc1` (centres unmarked) [Example 24], the values for the IC50 in test [1] and in test [2] were 0.23 nM and 0.24 nM, respectively. The response vs control in vivo at 5 mg/kg in the test on ICR mice was found to be 151%.
For the molecule `N=C(N)Nc1ccc(C(=O)Oc2ccc3c(c2)CCCC3CC(=O)N(CC(=O)O)Cc2cccc(CC(=O)O)c2)cc1` (centres unmarked) [Example 41], the IC50 in test [1] worked out at 0.26 nM; in test [2], 0.22 nM. Also, the response vs control in vivo at 5 mg/kg with ICR mice worked out at 201%.
For `N=C(N)Nc1ccc(C(=O)Oc2ccc3c(C(=O)N(CC(=O)O)Cc4cccc(C(=O)O)c4)csc3c2)cc1` [Example 60] the same measures were 0.33 nM, 0.31 nM and 226%.
